For experiment [1], the system named is NgR1 expressed in CHO cells (MAG-AP binding). Kind of experiment: Neuraminidase treatment, MAG-AP binding to NgR1-expressing CHO cells. Particulars: MAG-AP 2.5-20 μg/ml; CHO cells treated with neuraminidase. As for the experimental part: (§1) Chinese hamster ovary (CHO) parental cells and NgR1 stable cells were seeded at 30,000 cells per well in 96-well plates the night before the assay. Various concentrations of Vibrio cholera neuraminidase (Roche Applied Science, Indianapolis, Ind.) in growth medium (Dulbecco's modified Eagle medium containing 10% fetal bovine serum) were incubated with cells for an hour at 37° C. Medium was replaced with affinity-purified MAG-AP or Nogo66-AP in HBSS supplemented with 1% fetal bovine serum and […] of HEPES and incubated at room temperature for 90 min. Cells were then washed four times with supplemented HBSS. AltoPhos (0.6 mg/ml) (Promega, Madison Wis.) was added for indication of bound ligands. After a 30 minute incubation at RT, the plates were read at […] wavelength of 400 nm/505 nm with FLEXSTATION® 11384.
(§2) In neurons, soluble MAG binds to the NgR1 and NgR2 in a sialic acid-dependent manner (Venkatesh et al. (2005) supra). In the present study, the neuraminidase sensitivity of MAG binding to the NgR1 expressed in CHO cells was confirmed.

Experiment [2] has as its system NgR1 expressed in CHO cells (Nogo66-AP binding). Kind of experiment: Neuraminidase treatment, Nogo66-AP binding to NgR1-expressing CHO cells. Particulars: highest concentration of neuraminidase; Nogo66-AP 10 μg/ml. Here is the method:
as §1, §2

For experiment [3], the system named is cerebellar granule neurons. Kind of experiment: Neurite outgrowth on substrate-bound MAG. Format: cell-based, rat. The settings on record: tested at up to 200 μg/ml (FIG. 6F). Here is the method: Cerebellar neurons isolated from postnatal day ⅔ rat pups were cultured over monolayers of 3T3 cells (Doherty et al. (1991) Neuron 6(2):247-58) essentially as previously described (Williams et al. (1994) Neuron 13(3):583-94). Monolayers were established by seeding ˜80,000 cells into individual chambers of an eight-chamber tissue culture slide coated with poly-L-lysine and fibronectin. The cell lines, and monolayers, were maintained in Dulbecco's modified Eagle's medium supplemented with 10% fetal calf serum (FCS). […] Following careful fixation with 4% paraformaldehyde, the neurons were stained with a GAP-43 antibody, and the mean length of the longest neurite per cell was measured for ˜120-150 neurons, again as previously described (Williams et al. (1994) supra). […] The average of total neurite lengths from each neuron was measured automatically by the MetaXpress Neurite Outgrowth module (Molecular Devices, Sunnyvale, Calif.) from at least 200 neurons per well, in triplicate wells per experiment. […]

The next experiment concerns cerebellar neurons. Kind of experiment: Neurite outgrowth assay, inhibition by soluble MAG-Fc. Particulars: MAG-Fc 20 μg/ml, increasing peptide concentrations (FIG. 6E). Type of experiment: cell-based, rat. As for the experimental part: Cerebellar neurons isolated from postnatal day ⅔ rat pups were cultured over monolayers of 3T3 cells (Doherty et al. (1991) Neuron 6(2):247-58) essentially as previously described (Williams et al. (1994) Neuron 13(3):583-94). Monolayers were established by seeding ˜80,000 cells into individual chambers of an eight-chamber tissue culture slide coated with poly-L-lysine and fibronectin. The cell lines, and monolayers, were maintained in Dulbecco's modified Eagle's medium supplemented with 10% fetal calf serum (FCS). Cocultures were established by removing the media from the monolayers and seeding ˜6000 dissociated cerebellar neurons into each well in SATO medium (modified from Doherty et al. (1990) Neuron 5(2):209-19; Dulbecco's modified Eagle's medium supplemented with 2% FBS, 33% bovine albumin, 0.62 μg/ml progesterone, 161 μg/ml putrescine, 4 μg/ml L-thyroxine, 0.387 μg/ml selenium, and 3.37 μg/ml tri-iodo-thyronine (components from Sigma-Aldrich, St. Louis, Mo.)). Monolayers were established for 24 hours prior to addition of the neurons and the cultures were maintained for ˜23-27 hr. Following careful fixation with 4% paraformaldehyde, the neurons were stained with a GAP-43 antibody, and the mean length of the longest neurite per cell was measured for ˜120-150 neurons, again as previously described (Williams et al. (1994) supra). For neurite outgrowth on substrate-bound MAG, 96-well plates were coated with a thin layer of nitrocellulose (Bio-Rad, Hercules, Calif.) before incubating with 1 μg/ml of MAG(d1-5) (a chimeric construct containing domains 1-5 of the extracellular portion of MAG) at 4° C. overnight. Wells were subsequently coated with 17 μg/ml of poly-D-lysine (Sigma, St. Louis, Mo.), followed by incubation in Dulbecco's modified Eagle's medium containing 10% FCS. Cerebellar granule neurons were dissociated and seeded at a density of 10^4 cells per well. Cells were cultured for 18-20 h before being fixed with 4% paraformaldehyde and stained with a neuronal-specific anti-III-tubulin antibody, Tuj 1 (Covance, Emeryville, Calif.). The average of total neurite lengths from each neuron was measured automatically by the MetaXpress Neurite Outgrowth module (Molecular Devices, Sunnyvale, Calif.) from at least 200 neurons per well, in triplicate wells per experiment. Results were repeated independently more than three times.
Synthetic peptides were all obtained from a commercial supplier (Multiple Peptide Systems, San Diego, Calif.). All peptides were purified to the highest grade by reverse-phase HPLC and obtained at the highest level of purity (>97%). With all peptides, there was no indication of higher molecular weight species. Where peptide sequences are underlined, this denotes a peptide that has been cyclized via a disulfide bond between the given cysteine residues. All peptides were acetylated (e.g., denoted with “N-Ac-”) and amide blocked (e.g., denoted with “—NH2”). Recombinant MAG-Fc chimera was obtained from R&D Systems (Minneapolis, Minn.) and used at final concentrations ranging from 5-25 μg/ml. The monoclonal antibody to GT1b (clone GMR5) was obtained from Seikagaku America (Falmouth, Mass.) and was used at a final concentration of 20 μg/ml. All reagents were diluted into the coculture media and, in general, added to the cultures just prior to the plating of the neurons. GT1b and GM1 were obtained as gifts from Dr. Gino Toffano (Libero, Italy) and University of Milan, and asialo-GM1 was obtained from Sigma (St. Louis, Mo.). The recombinant NgR1(310)-fc and MAG(d1-5) chimeras were expressed and purified in-house. Pharmacological reagents were obtained from Calbiochem (La Jolla, Calif.) and/or Sigma. For reagents used in cell-surface NgR binding assays, please see Examples 1.5 and 1.7. For reagents used in the cell surface p75NTR-NgR-AP binding assay, please see Example 1.13.
In contrast, a soluble MAG-Fc chimera inhibits neurite outgrowth in a manner that depends upon both ganglioside and NgR function. […]

The target in the next experiment is T1, NgR1(310)-fc (Homo sapiens, UniProt Q9BZR6).
T1 construct: made in house; host or cells: mammalian expression vector (pSMED2)
T1 sequence (Q9BZR6 with tags, fused parts or gaps limits assumed): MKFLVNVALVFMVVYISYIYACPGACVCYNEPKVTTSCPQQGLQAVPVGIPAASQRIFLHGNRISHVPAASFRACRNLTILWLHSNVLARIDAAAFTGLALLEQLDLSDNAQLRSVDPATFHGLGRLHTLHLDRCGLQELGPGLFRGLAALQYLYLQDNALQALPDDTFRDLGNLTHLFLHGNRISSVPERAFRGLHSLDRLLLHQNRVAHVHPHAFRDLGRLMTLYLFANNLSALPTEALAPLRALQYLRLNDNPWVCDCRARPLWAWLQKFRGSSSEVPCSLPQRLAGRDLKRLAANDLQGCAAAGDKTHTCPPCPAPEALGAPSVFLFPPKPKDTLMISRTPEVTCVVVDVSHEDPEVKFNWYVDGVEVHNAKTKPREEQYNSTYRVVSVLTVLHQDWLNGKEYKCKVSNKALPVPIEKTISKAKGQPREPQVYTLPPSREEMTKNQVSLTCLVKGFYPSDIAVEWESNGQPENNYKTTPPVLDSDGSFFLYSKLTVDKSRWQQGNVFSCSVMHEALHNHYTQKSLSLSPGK
Kind of experiment: Analytical ultracentrifugation (sedimentation velocity), wild type receptor. Type of experiment: binding. Particulars: ganglioside 0 to 48 μM (FIG. 3A-C). The text has this: (§3) Human Nogo Receptor 1 (NgR1)(310)-fc point mutants (FRG-1 (R151E); FRG-2 (R279E); FRG-3 (R199E), and FRG-4 (R151E/R279E/R199E)) were constructed by Genewiz (North Brunswick, N.J.) using their site-directed mutagenesis technology. The template used to construct all the described mutants was wild type human NgR1(310)-fc (SEQ ID NO:59), which was generated by fusing a nucleotide sequence corresponding to the first 310 amino acid of Human Nogo Receptor 1 to a human Fc fragment in a mammalian expression vector (the sequence of wild type NgR1(310)-fc and the expression vector is set forth in SEQ ID NO:60 and a schematic of the expression vector is shown in FIG. 11). […]
(§4) Sedimentation velocity experiments were performed on a Beckman XLI/XLA analytical ultracentrifuge. […] Scans were recorded at 20° C. with a rotor speed of 35,000 rpm, and the signal was detected at 230 nm with a spacing of 0.006 in the continuous mode. Sedimentation profiles were analyzed by the program Sedfit (Schuck (2000) Biophys. J. 78:1606-19) to obtain the sedimentation coefficient distributions. The solvent density (1.006) and partial specific volume (0.72) were calculated using the program Sednterp (Laue et al. (1992) Analytical Ultracentrifugation in Biochemistry and Polymer Science (Harding, S. E., Towe, A. J. and Horton, J. C., eds.) pp. 90-125, Royal Society of Chemistry, Cambridge, U.K). […]

In experiment [4] the test system is anti-hNgR AF 1208 antibody. Kind of experiment: Analytical ultracentrifugation, specificity control. Particulars: 22 mM GT1b (data not shown). Type of experiment: binding. Here is the method: Sedimentation velocity experiments were performed on a Beckman XLI/XLA analytical ultracentrifuge. Wild type NgR(310)-fc (0.21 μM to 0.38 μM final) was added to ganglioside at concentrations increasing from 0 to 48 μM. Mutant protein used in the sedimentation velocity experiments corresponded to the column fraction of greatest purity based on SDS gel analysis. […] The solution (400 μL) was loaded into two-channel (1.2 cm path length) carbon-Epon centerpieces in an An-50-Ti rotor. Scans were recorded at 20° C. with a rotor speed of 35,000 rpm, and the signal was detected at 230 nm with a spacing of 0.006 in the continuous mode. Sedimentation profiles were analyzed by the program Sedfit (Schuck (2000) Biophys. J. 78:1606-19) to obtain the sedimentation coefficient distributions. The solvent density (1.006) and partial specific volume (0.72) were calculated using the program Sednterp (Laue et al. (1992) Analytical Ultracentrifugation in Biochemistry and Polymer Science (Harding, S. E., Towe, A. J. and Horton, J. C., eds.) pp. 90-125, Royal Society of Chemistry, Cambridge, U.K).
The peptide competition studies, together with the direct binding assays, have implicated the FRG motif within loop 2 as being important for MAG function. […]

In another experiment the target is T2, NgR1(310)-fc R151E (Homo sapiens, UniProt Q9BZR6, R151E).
T2 construct: made in house; host or cells: mammalian expression vector
T2 sequence (Q9BZR6 27-310 R151E): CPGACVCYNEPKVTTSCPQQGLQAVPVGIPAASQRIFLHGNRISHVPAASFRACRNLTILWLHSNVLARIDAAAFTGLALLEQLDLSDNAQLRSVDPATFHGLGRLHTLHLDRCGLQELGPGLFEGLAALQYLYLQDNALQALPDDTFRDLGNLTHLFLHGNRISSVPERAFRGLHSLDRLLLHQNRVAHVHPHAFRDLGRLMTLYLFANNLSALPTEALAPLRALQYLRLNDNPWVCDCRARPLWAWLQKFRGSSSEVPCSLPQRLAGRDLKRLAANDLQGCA
Kind of experiment: Analytical ultracentrifugation, R151E mutant receptor. Type of experiment: binding.
Description: as §3, §4

The next experiment addresses T3, NgR1(310)-fc R279E (Homo sapiens, UniProt Q9BZR6, R279E).
T3 construct: made in house; host or cells: mammalian expression vector
T3 sequence (Q9BZR6 27-310 R279E): T2 sequence (Q9BZR6 27-310 R151E) with E125R, R253E
Kind of experiment: Analytical ultracentrifugation, R279E mutant receptor. Format: binding.
Description: as §3, §4

The target in another experiment is T4, NgR1(310)-fc R199E (Homo sapiens, UniProt Q9BZR6, R199E).
T4 construct: made in house; host or cells: mammalian expression vector
T4 sequence (Q9BZR6 27-310 R199E): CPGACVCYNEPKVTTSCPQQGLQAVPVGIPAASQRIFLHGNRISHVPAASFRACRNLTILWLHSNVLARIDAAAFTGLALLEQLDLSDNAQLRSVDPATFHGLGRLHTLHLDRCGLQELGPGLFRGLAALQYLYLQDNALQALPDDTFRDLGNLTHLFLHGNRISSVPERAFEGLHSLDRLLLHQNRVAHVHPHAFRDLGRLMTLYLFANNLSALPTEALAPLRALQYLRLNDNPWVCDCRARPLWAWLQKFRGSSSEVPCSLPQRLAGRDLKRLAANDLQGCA
Kind of experiment: Analytical ultracentrifugation, R199E mutant receptor. Format: binding.
Description: as §3, §4

Positions count from the first letter of the chain named. Several values for one entry are separate records, joined by “and”; a condition that tells them apart may be missing. Equal entries are not always repeated.

On to “neuraminidase: Vibrio cholera neuraminidase (Roche Applied Science)”, for which, in experiment [1], the “inhibition of specific binding of MAG-AP to NgR1-expressing cells” value is 55%. For the same substance, the “effect on Nogo66-AP binding to NgR1” value in [2] is “completely unaffected”.

Turning to “N-Ac-c[sGrfkq]-NH2 (XGXXXX; not fully specified; cyclised or stapled) [hriNRL2]”, in experiment [3], the “effect on suppressed neurite outgrowth on MAG substrate” value was “no significant effect”. For the same substance, the “efficacy in inhibiting the MAG response” value in the experiment on cerebellar neurons is “retain full efficacy”.

As to GT1b, the “interaction with NgR1(310)-fc (shift of sedimentation coefficient)” value on NgR1(310)-fc is listed as “additional peaks with higher sedimentation coefficients appear in a dose-dependent manner”. Moreover, the “effect on sedimentation of control antibody” value in experiment [4] is on record as “No effect”. Also, the results for the “reduction of GT1b/NgR1 complex formation” value on NgR1(310)-fc R151E (R151 mutated), on NgR1(310)-fc R279E (R279 mutated) and on NgR1(310)-fc R199E (R199 mutated) were approximately 50%, approximately 50% and approximately 70%, respectively. On NgR1(310)-fc R151E (mutation of arginine 151, GT1b 22 μM), the “GT1b binding relative to wild type” value is 49%. Besides, the “GT1b binding relative to wild type NgR” value on NgR1(310)-fc R279E (mutation of arginine 279, GT1b 22 μM, ratio of ~6.7 S and ~11 S peaks) was “approximately 56%”. In addition, the “GT1b binding relative to wild type / residual complex formation” value on NgR1(310)-fc R199E (mutation of arginine 199, GT1b 22 μM) is ~30% and 33%.
